Reference: US20250171495A1, “MUTLI-TARGETED SERINE PROTEASE INHIBITORS FOR TREATMENT OF CANCER AND VIRAL INFECTION” (Washington University, priority 2023, published 2025)

System: VSV-SARS-CoV-2
Experiment: microbe, parasite or virus in culture
Conditions: Vesicular stomatitis virus, Calu-3, in Homo sapiens, read-out: VSV SARS CoV-2 Cell Entry EC50 (nM)

Row | Structure (SMILES) | EC50
1 | CCC(C)[C@H](NC(C)=O)C(=O)N[C@@H](CCC(N)=O)C(=O)N[C@@H](Cc1ccccc1)C(=O)N[C@@H](CCCNC(=N)N)C(=O)c1nc2ccccc2s1 (stereo partly drawn) [MM3116, N-[(S)-1-[N-(S)-1-[(1,3-benzothiazol-2-yl)carbonyl]-4-guanidinobutylcarbamoyl]-2-phenylethyl](S)-2-[(2S)-2-acetylamino-3-methylvalerylamino]glutaramide] | 3.6 nM
2 | CC(=O)NCC(=O)N[C@@H](CCC(N)=O)C(=O)N[C@@H](Cc1ccccc1)C(=O)N[C@@H](CCCNC(=N)N)C(=O)c1nc2ccccc2s1 [MM3122, N-[(S)-1-[N-(S)-1-[(1,3-benzothiazol-2-yl)carbonyl]-4-guanidinobutylcarbamoyl]-2-phenylethyl](S)-2-[(acetylaminomethyl)carbonylamino]glutaramide] | 0.43 nM
3 | CC(=O)N1CCC[C@H]1C(=O)N[C@@H](CCC(N)=O)C(=O)N[C@@H](Cc1ccccc1)C(=O)N[C@@H](CCCNC(=N)N)C(=O)c1nc2ccccc2s1 [MM3123, N-[(S)-1-[N-(S)-1-[(1,3-benzothiazol-2-yl)carbonyl]-4-guanidinobutylcarbamoyl]-2-phenylethyl](S)-2-[(S)-1-acetyl-2-pyrrolidinylcarbonylamino] glutaramide] | 0.86 nM
4 | CC(=O)N[C@@H](CC(C)C)C(=O)N[C@@H](CCC(N)=O)C(=O)N[C@@H](Cc1ccccc1)C(=O)N[C@@H](CCCNC(=N)N)C(=O)c1nc2ccccc2s1 [MM3131, N-[(S)-1-[N-(S)-1-[(1,3-benzothiazol-2-yl)carbonyl]-4-guanidinobutylcarbamoyl]-2-phenylethyl](S)-2-[(S)-2-acetylamino-4-methylvalerylamino]glutaramide] | 10.7 nM
5 | CC(=O)N[C@@H](CCC(N)=O)C(=O)N[C@@H](Cc1ccccc1)C(=O)N[C@@H](CCCNC(=N)N)C(=O)c1nc2ccccc2s1 [MM3144, N-[(S)-1-[N-(S)-1-[(1,3-benzothiazol-2-yl)carbonyl]-4-guanidinobutylcarbamoyl]-2-phenylethyl](S)-2-acetylaminoglutaramide] | 0.53 nM
6 | CCC(C)[C@H](NC(C)=O)C(=O)N[C@@H](CCC(N)=O)C(=O)N[C@@H](CO)C(=O)N[C@@H](CCCNC(=N)N)C(=O)c1nc2ccccc2s1 (stereo partly drawn) [MM3177, N-[(S)-2-hydroxy-1-[N-(S)-1-[(1,3-benzothiazol-2-yl)carbonyl]-4-guanidinobutylcarbamoyl]ethyl](S)-2-[(2S)-2-acetylamino-3-methylvalerylamino]glutaramide] | 36 nM
7 | CCC(C)[C@H](NC(C)=O)C(=O)N[C@@H](CCC(N)=O)C(=O)N[C@@H](C)C(=O)N[C@@H](CCCNC(=N)N)C(=O)c1nc2ccccc2s1 (stereo partly drawn) [MM3178, N-[(S)-1-[N-(S)-1-[(1,3-benzothiazol-2-yl)carbonyl]-4-guanidinobutylcarbamoyl]ethyl](S)-2-[(2S)-2-acetylamino-3-methylvalerylamino]glutaramide] | 10.8 nM
8 | CCC(C)[C@H](NC(C)=O)C(=O)N[C@@H](CCC(N)=O)C(=O)N[C@H](C(=O)N[C@H](CCCNC(=N)N)C(=O)c1nc2ccccc2s1)C(C)C (stereo partly drawn) [MM3180-1, N-[(S)-2-methyl-1-[N-(R)-1-[(1,3-benzothiazol-2-yl)carbonyl]-4-guanidinobutylcarbamoyl]propyl](S)-2-[(2S)-2-acetylamino-3-methylvalerylamino]glutaramide] | 5.3 nM
9 | CCC(C)[C@H](NC(C)=O)C(=O)N[C@@H](CCC(N)=O)C(=O)N[C@H](C(=O)N[C@@H](CCCNC(=N)N)C(=O)c1nc2ccccc2s1)C(C)C (stereo partly drawn) [MM3180-2, N-[(S)-2-methyl-1-[N-(S)-1-[(1,3-benzothiazol-2-yl)carbonyl]-4-guanidinobutylcarbamoyl]propyl](S)-2-[(2S)-2-acetylamino-3-methylvalerylamino]glutaramide] | 12 nM
10 | CCC(C)[C@H](NC(C)=O)C(=O)N[C@@H](CCC(N)=O)C(=O)N[C@H](C(=O)N[C@@H](CCCNC(=N)N)C(=O)c1nc2ccccc2s1)C(C)O (stereo partly drawn) [MM3186, N-[(1S)-2-hydroxy-1-[N-(S)-1-[(1,3-benzothiazol-2-yl)carbonyl]-4-guanidinobutylcarbamoyl]propyl](S)-2-[(2S)-2-acetylamino-3-methylvalerylamino]glutaramide] | 18.5 nM
11 | CCC(C)[C@H](NC(C)=O)C(=O)N[C@@H](CCC(N)=O)C(=O)N[C@@H](Cc1c[nH]c2ccccc12)C(=O)N[C@@H](CCCNC(=N)N)C(=O)c1nc2ccccc2s1 (stereo partly drawn) [MM3187, N-[(S)-2-(3-indolyl)-1-[N-(S)-1-[(1,3-benzothiazol-2-yl)carbonyl]-4-guanidinobutylcarbamoyl]ethyl](S)-2-[(2S)-2-acetylamino-3-methylvalerylamino]glutaramide] | 22 nM
12 | CC(=O)N1CCC[C@H]1C(=O)N[C@@H](CO)C(=O)N[C@@H](CCCCN)C(=O)N[C@@H](CCCNC(=N)N)C(=O)c1nc2ccccc2s1 [MM3194A, N-[(S)-2-hydroxy-1-[N-(S)-5-amino-1-[N-(S)-1-[(1,3-benzothiazol-2-yl)carbonyl]-4-guanidinobutylcarbamoyl]pentylcarbamoy1]ethyl]-(S)-1-acetyl-2-pyrrolidinecarboxamide] | 613 nM
13 | CCC(C)[C@H](NC(C)=O)C(=O)N[C@@H](CO)C(=O)N[C@@H](Cc1ccccc1)C(=O)N[C@@H](CCCNC(=N)N)C(=O)c1nc2ccccc2s1 (stereo partly drawn) [MM4009-2, N-[(S)-2-hydroxy-1-[N-(S)-1-[N-(S)-1-[(1,3-benzothiazol-2-yl)carbonyl]-4-guanidinobutylcarbamoyl]-2-phenylethylcarbamoyl]ethyl] (2S)-2-acetylamino-3-methylvaleramide] | 40.3 nM
14 | CCC(C)[C@H](NC(C)=O)C(=O)N[C@@H](CCSC)C(=O)N[C@@H](Cc1ccccc1)C(=O)N[C@H](CCCNC(=N)N)C(=O)c1nc2ccccc2s1 (stereo partly drawn) [MM4027-1, N-[(S)-3-(methylthio)-1-[N-(S)-1-[N-(R)-1-[(1,3-benzothiazol-2-yl)carbonyl]-4-guanidinobutylcarbamoyl]-2-phenylethylcarbamoyl]propyl](2S)-2-acetylamino-3-methylvaleramide] | 92.3 nM
15 | CCC(C)[C@H](NC(C)=O)C(=O)N[C@H](C(=O)N[C@@H](Cc1ccccc1)C(=O)N[C@@H](CCCNC(=N)N)C(=O)c1nc2ccccc2s1)C(C)O (stereo partly drawn) [MM4028-2, N-[(1S)-2-hydroxy-1-[N-(S)-1-[N-(S)-1-[(1,3-benzothiazol-2-yl)carbonyl]-4-guanidinobutylcarbamoyl]-2-phenylethylcarbamoyl]propyl](2S)-2-acetylamino-3-methylvaleramide] | 103 nM
16 | CCC(C)[C@H](NC(C)=O)C(=O)N[C@@H](CCC(=O)O)C(=O)N[C@@H](Cc1ccccc1)C(=O)N[C@@H](CCCNC(=N)N)C(=O)c1nc2ccccc2s1 (stereo partly drawn) [MM4037-2, (S)-4-[(2S)-2-acetylamino-3-methylvalerylamino]-4-[N-(S)-1-[N-(S)-1-[(1,3-benzothiazol-2-yl)carbonyl]-4-guanidinobutylcarbamoyl]-2-phenylethylcarbamoyl]butyric acid] | 23.9 nM
17 | CCC(C)[C@H](NC(C)=O)C(=O)N[C@H](Cc1cc2ccccc2[nH]1)C(=O)N[C@@H](Cc1ccccc1)C(=O)N[C@@H](CCCNC(=N)N)C(=O)c1nc2ccccc2s1 (stereo partly drawn) [MM4038, N-[(R)-2-(2-indolyl)-1-[N-(S)-1-[N-(S)-1-[(1,3-benzothiazol-2-yl)carbonyl]-4-guanidinobutylcarbamoyl]-2-phenylethylcarbamoy1]ethyl](2S)-2-acetylamino-3-methylvaleramide] | 226 nM
18 | N=C(N)NCCC[C@H](NC(=O)[C@H](Cc1ccccc1)NC(=O)[C@H](N)Cc1c[nH]c2ccccc12)C(=O)c1nc2ccccc2s1 [PK-1-18A1, N-[(S)-1-[(1,3-benzothiazol-2-yl)carbonyl]-4-guanidinobutyl](S)-2-[(R)-2-amino-3-(3-indolyl)propionylamino]-3-phenylpropionamide] | 356 nM
19 | N=C(N)NCCC[C@H](NC(=O)[C@H](Cc1ccccc1)NC(=O)[C@H](N)Cc1c[nH]c2ccccc12)C(=O)c1nc2ccc(C(=O)O)cc2s1 [PK-1-45A1, 2-[(S)-2-[(S)-2-[(R)-2-amino-3-(3-indolyl)propionylamino]-3-phenylpropionylamino]-5-guanidinovaleryl]-1,3-benzothiazole-6-carboxylic acid] | 105 nM
20 | CC(=O)N[C@H](Cc1c[nH]c2ccccc12)C(=O)N[C@@H](Cc1ccccc1)C(=O)N[C@@H](CCCNC(=N)N)C(=O)c1nc2ccccc2s1 [PK-1-89A1, N-[(S)-1-[(1,3-benzothiazol-2-yl)carbonyl]-4-guanidinobutyl](S)-2-[(R)-2-acetylamino-3-(3-indolyl)propionylamino]-3-phenylpropionamide] | 140 nM
21 | CC(=O)N[C@H](Cc1c[nH]c2ccccc12)C(=O)N[C@@H](Cc1ccccc1)C(=O)N[C@@H](CCCNC(=N)N)C(=O)c1nc2ccc(C(=O)O)cc2s1 [PK-1-93, 2-[(S)-2-[(S)-2-[(R)-2-acetylamino-3-(3-indolyl)propionylamino]-3-phenylpropionylamino]-5-guanidinovaleryl]-1,3-benzothiazole-6-carboxylic acid] | 141 nM
22 | CC(=O)N[C@@H](Cc1c[nH]c2ccccc12)C(=O)N[C@@H](Cc1ccccc1)C(=O)N[C@@H](CCCNC(=N)N)C(=O)c1nc2ccccc2s1 [PK-1-102A1, N-[(S)-1-[(1,3-benzothiazol-2-yl)carbonyl]-4-guanidinobutyl](S)-2-[(S)-2-acetylamino-3-(3-indolyl)propionylamino]-3-phenylpropionamide] | 1380 nM
23 | CC(=O)N[C@@H](Cc1c[nH]c2ccccc12)C(=O)N[C@@H](Cc1ccccc1)C(=O)N[C@@H](CCCNC(=N)N)C(=O)c1nc2ccc(C(=O)O)cc2s1 [PK-1-103, 2-[(S)-2-[(S)-2-[(S)-2-acetylamino-3-(3-indolyl)propionylamino]-3-phenylpropionylamino]-5-guanidinovaleryl]-1,3-benzothiazole-6-carboxylic acid] | 116 nM
24 | CC(=O)N[C@@H](Cc1c[nH]c2ccccc12)C(=O)N[C@@H](CC(C)C)C(=O)N[C@@H](CCCNC(=N)N)C(=O)c1nc2ccc(C(=O)O)cc2s1 [PK-1-105, 2-[(S)-2-[(S)-2-[(S)-2-acetylamino-3-(3-indolyl)propionylamino]-4-methylvalerylamino]-5-guanidinovaleryl]-1,3-benzothiazole-6-carboxylic acid] | 721 nM
